Data published in patent US4897391A, “Tricyclic anti-allergy, antiinflammatory and anti-hyperproliferative compounds” (Schering Corporation, priority 1988, dated 1990).
Counter-ions that a name gives are not always drawn. Like-named read-outs stand apart in the source and are kept apart here.

How the values were obtained:
5-lipoxygenase = biological target: T1, 5-lipoxygenase (Mus musculus, UniProt P48999); assay: 5-Lipoxygenase Assay (MC-9 mast cells, 5-HETE and LTC4 production); format: cell-based, murine; details: for inhibition at 3.12 µM: MC9, 3.12 μM dose; for inhibition at 6.25 µM: MC9, 6.25 μM dose; for inhibition at 12.5 µM: MC9, 12.5 μM dose; for inhibition at 25 µM: MC9, 25 μM dose
T1 construct: Preincubate MC-9 cells (0.39 ml at 7.5×10^6 cells/ml) without or with test compound; endogenous in cells; host or cells: MC-9 murine mast cell clone (interleukin-3-dependent)
T1 sequence (P48999 1-674): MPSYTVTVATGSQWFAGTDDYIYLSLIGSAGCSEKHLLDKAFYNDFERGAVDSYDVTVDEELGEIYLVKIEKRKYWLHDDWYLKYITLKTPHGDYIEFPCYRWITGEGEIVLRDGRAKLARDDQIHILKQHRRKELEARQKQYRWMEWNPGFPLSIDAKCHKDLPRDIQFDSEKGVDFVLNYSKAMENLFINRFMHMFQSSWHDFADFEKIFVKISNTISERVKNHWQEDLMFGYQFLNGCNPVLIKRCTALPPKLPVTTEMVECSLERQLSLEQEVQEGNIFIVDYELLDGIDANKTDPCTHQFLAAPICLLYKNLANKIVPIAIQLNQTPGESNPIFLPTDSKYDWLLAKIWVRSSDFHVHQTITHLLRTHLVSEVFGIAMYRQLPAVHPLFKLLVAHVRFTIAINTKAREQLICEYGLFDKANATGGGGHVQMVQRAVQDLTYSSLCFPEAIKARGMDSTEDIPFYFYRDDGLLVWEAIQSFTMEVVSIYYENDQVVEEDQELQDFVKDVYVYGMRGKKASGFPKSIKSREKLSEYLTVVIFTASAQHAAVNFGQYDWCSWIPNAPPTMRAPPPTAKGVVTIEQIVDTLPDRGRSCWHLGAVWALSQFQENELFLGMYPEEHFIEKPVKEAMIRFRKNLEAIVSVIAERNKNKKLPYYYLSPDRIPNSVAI
Procedure: Preincubate MC-9 cells (0.39 ml at 7.5×10^6 cells/ml) without or with test compound dissolved in dimethylsulfoxide (DMSO) vehicle (to a final volume 1 μl) for 4 minutes then incubate for 5 minutes with [^14 C]arachidonic acid (Amersham, 59 Ci/mole) at a 9 μM final concentration, and A23187 (Calbiochem) at a 1 μM final concentration in 10 μl of water:ethanol (9:1). Stop the reaction by addition of methanol (0.4 ml), and remove cellular debris by centrifugation. Run aliquots (250 μl) of the incubations on a Waters two-pump HPLC system fitted with a Waters radial compression column (C18, 10 micron, 8×100 mm, micro-Bondapak) and C18 "Guard Pak". Initially elute the column at 3 ml/min with water:methanol:acetic acid (67:33:0.08) containing 1 mM EDTA adjusted to pH 6.0 with ammonium hydroxide (Pump A). At 4 minutes, establish a linear gradient to reach 100% methanol (Pump B) at 9 minutes. Between 13 and 14 minutes, exchange for the initial eluting solvent and by 19 minutes the column will be reequilibrated for the next sample. Analyze the effluent by a continuous flow radioactivity monitor (model ROMONA-D) interfaced with a Hewlett Packard Lab Automation System for quantitation of radioactive products. […] Doses in table 2 are 50 μM unless otherwise noted.

[1] = tested on: Peptidoleukotriene Release in Guinea Pig Lung; assay: Peptidoleukotriene Release Inhibition in Lung Assay; format: cell-based; details: Cavia porcellus; final concentration of 50 μm (so in the source); ovalbumin challenge, sensitized guinea pig lung
Excerpt: The anti-allergy method of this invention is identified by tests that measure inhibition of leukotriene release in sensitized guinea pigs by compounds of the invention. This procedure is as follows.
First, kill sensitized guinea pigs by a blow to the head, remove the lungs and clean them of visible connective tissue, trachea and large blood vessels. Slice the lungs from individual animals into fragments approximately 1 mm in thickness using a McIlwain tissue chopper and wash them with oxygenated Tyrode's buffer. Transfer weighed aliquots (approximately 400 mg wet weight) of lung into vials containing 2 ml of fresh Tyrode's solution (containing 10 mM cysteine) and incubate in the presence or absence of test compound for 12 minutes at 37° C., challenge the tissues with 20 μg ovalbumin/ml (final concentration) and incubate for 15 minutes. To measure leukotriene release, extract an aliquot of supernatant fluid with 4 volumes of 100% ethanol. After removal of the precipitated protein, dry the clear fluid under a stream of N2 gas. Measure the leukotriene content by a radioimmunoassay using [^3 H]LTC4 (leukotriene C4) and antiserum obtained from New England Nuclear. […] Calculate percent inhibition of leukotriene release by comparing for each lung the release in the presence of the test compound to that in the absence of test compound.

[2] = MC9, 50 μM dose, MC-9 cells, read-out: % Inhibition 5-HETE
[3] = MC9, 50 μM dose, MC-9 cells, read-out: % Inhibition LTC4
[4] = MC-9 cells, read-out: % Inhibition 5-HETE
[5] = MC-9 cells, read-out: % Inhibition LTC4

CC(=O)Oc1ccc2c(c1)C(=O)N1CCCCC1C2(C)O (stereo not shown) [8-acetyloxy-1,2,3,4,11,11a-hexahydro-11-hydroxy-11-methyl-6H-benzo[b]quinolizin-6-one]
inhibition at 50 µM (5-lipoxygenase; [2]): 5%

CC(=O)Oc1cc(OC(C)=O)c2c3c(n(C)c(=O)c2c1)CCC3
inhibition at 50 µM (5-lipoxygenase; [2]): 56%

CC(=O)Oc1cc(OC(C)=O)c2c3c([nH]c(=O)c2c1)CCCC3 [8,10-bis(acetyloxy)-1,3,4,5,6-tetrahydro-6(2H)-phenanthridinone]
inhibition at 50 µM [1]: 36%
inhibition at 50 µM (5-lipoxygenase; [2]): 56%
inhibition at 50 µM (5-lipoxygenase; [3]): 41%

CC(=O)Oc1cc(OC(C)=O)c2c(-c3ccccc3)c3n(c(=O)c2c1)CCC3 [7,9-bis(acetyloxy)-2,3-dihydro-10-phenyl-6H-pyrrolo[1,2-b]isoquinolin-5(1H)-one]
inhibition at 50 µM [1]: 76%
inhibition at 50 µM (5-lipoxygenase; [2]): 18%
inhibition at 50 µM (5-lipoxygenase; [3]): 10%

O=c1[nH]c2c(c3c(O)cc(O)cc13)CCCC2 [1,3,4,5-tetrahydro-8,10-dihydroxy-phenanthridin-6(2H)-one]
inhibition at 50 µM (5-lipoxygenase; [2]): 31%

CC(=O)Oc1cc(OC(C)=O)c2c(-c3ccccc3)c3n(c(=O)c2c1)CCCC3 [8,10-bis(acetyloxy)-1,2,3,4,-tetrahydro-11-phenyl-6H-benzo[b]quinolizin-6-one]
inhibition at 50 µM [1]: 66%
inhibition at 50 µM (5-lipoxygenase; [2]): 21%

CC(=O)Oc1cc(OC(C)=O)c2c(OC(C)=O)c3n(c(=O)c2c1)CCCC3 [8,10,11-tris(acetyloxy)-1,2,3,4-tetrahydro-6H-benzo[b]quinolizin-6-one]
inhibition at 50 µM [1]: 39%
inhibition at 50 µM (5-lipoxygenase; [2]): 2%

Cc1c2n(c(=O)c3cc(OC(=O)CN)cc(OC(=O)CN)c13)CCCC2 [8,10-bis[(aminoacetyl)oxy]-11-methyl-1,2,3,4-tetrahydro-6H-benzo[b]quinolizine-6-one dihydrochloride]
inhibition at 50 µM (5-lipoxygenase; [2]): 99%

CC(=O)Oc1ccc2c(C)c3n(c(=O)c2c1OC(C)=O)CCCC3 [D, 7,8-bis(acetyloxy)-1,2,3,4-tetrahydro-11-methyl-6H-benzo[b]quinolizin-6-one]
inhibition at 50 µM [1]: 62%
inhibition at 50 µM (5-lipoxygenase; [2]): 98%

Cc1c2n(c(=O)c3cc(OC(=O)C(C)(C)C)cc(OC(=O)C(C)(C)C)c13)CCCC2 [8,10-bis(2,2-dimethyl-1-oxopropoxy)-11-methyl-1,3,4,6-tetrahydro-6H-benzo[b]quinolizin-6-one]
inhibition at 50 µM [1]: 5%
inhibition at 50 µM (5-lipoxygenase; [2]): 45%

O=c1[nH]c2c(c3c(O)cc(O)cc13)CCC2
inhibition at 50 µM (5-lipoxygenase; [2]): 31%

Cc1c2n(c(=O)c3cc(O)cc(O)c13)CCCC2 [1,2,3,4-tetrahydro-8,10-dihydroxy-11-methyl-6H-benzo[b]quinolizin-6-one, disodium salt]
inhibition at 50 µM [1]: 71%
inhibition at 50 µM (5-lipoxygenase; MC9, read-out: % Inhibition 5-HETE): 88%

Cc1c2n(c(=O)c3cc(O)cc(O)c13)CCCC2 [C, 1,2,3,4-tetrahydro-8,10-dihydroxy-11-methyl-6H-benzo[b]quinolizin-6-one]
inhibition at 50 µM [1]: 61%
inhibition at 50 µM (5-lipoxygenase; [2]): 100%

CC(=O)Oc1cc(OC(C)=O)c2c(C)c3n(c(=O)c2c1)CCCC3 [A, 8,10-bis(acetyloxy)-1,2,3,4-tetrahydro-11-methyl-6H-benzo[b]quinolizin-6-one]
inhibition at 50 µM [1]: 69%
inhibition at 3.12 µM (5-lipoxygenase; [4]): 50%
inhibition at 3.12 µM (5-lipoxygenase; [5]): 57%
inhibition at 6.25 µM (5-lipoxygenase; [4]): 65%
inhibition at 6.25 µM (5-lipoxygenase; [5]): 59%
inhibition at 12.5 µM (5-lipoxygenase; [4]): 62%
inhibition at 12.5 µM (5-lipoxygenase; [5]): 54%
inhibition at 25 µM (5-lipoxygenase; [4]): 93%
inhibition at 25 µM (5-lipoxygenase; [5]): 90%

CC(=O)Oc1cc(OC(C)=O)c2c(-c3ccccc3)c[nH]c(=O)c2c1 [5,7-bis(acetyloxy)-4-phenyl-1(2H)-isoquinolinone]
inhibition at 50 µM (5-lipoxygenase; [2]): 19%
inhibition at 50 µM (5-lipoxygenase; [3]): 16%

CC(=O)Oc1cc(OC(C)=O)c2c(-c3ccccc3)c(C)n(C)c(=O)c2c1 [5,7-bis(acetyloxy)-2,3-dimethyl-4-phenyl-1(2H)-isoquinolinone]
inhibition at 50 µM [1]: 45%
inhibition at 50 µM (5-lipoxygenase; [2]): 5%

CC(=O)Oc1ccc2c(=O)n3c(c(C)c2c1OC(C)=O)CCCC3 [9,10-bis(acetyloxy)-1,2,3,4-tetrahydro-11-methyl-6H-benzo[b]quinolizin-6-one]
inhibition at 50 µM [1]: 84%
inhibition at 50 µM (5-lipoxygenase; [2]): 74%

O=c1c2cc(O)cc(O)c2c(O)c2n1CCCC2 [1,2,3,4-tetrahydro-8,10,11-trihydroxy-6H-benzo[b]quinolizin-6-one]
inhibition at 50 µM [1]: 28%
inhibition at 50 µM (5-lipoxygenase; [2]): 18%

CC(=O)Oc1cc(OC(C)=O)c2c(C)c[nH]c(=O)c2c1 [5,7-bis(acetyloxy)-4-methyl-1(2H)-isoquinolinone]
inhibition at 50 µM (5-lipoxygenase; [2]): 43%
inhibition at 50 µM (5-lipoxygenase; [3]): 40%

CC(=O)Oc1cc(OC(C)=O)c2c(-c3ccccc3)c(C)[nH]c(=O)c2c1 [5,7-bis(acetyloxy)-3-methyl-4-phenyl-1(2H)-isoquinolinone]
inhibition at 50 µM [1]: 12%
inhibition at 50 µM (5-lipoxygenase; [2]): 31%
inhibition at 50 µM (5-lipoxygenase; [3]): 27%

O=C1c2cc(O)cc(O)c2C(O)(c2ccccc2)C2CCCCN12 (stereo not shown) [1,2,3,4,11,11a-hexahydro-8,10,11-trihydroxy-11-phenyl-6H-benzo[b]quinolizin-6-one]
inhibition at 50 µM (5-lipoxygenase; [2]): 23%
inhibition at 50 µM (5-lipoxygenase; [3]): 32%

CC(=O)Oc1ccc2c(C)c3n(c(=O)c2c1)CCCC3 [8-acetyloxy-1,2,3,4-tetrahydro-11-methyl-6H-benzo[b]quinolizin-6-one]
inhibition at 50 µM [1]: 9%
inhibition at 50 µM (5-lipoxygenase; [2]): 19%
